“Also recorded” adds a separate entry of the source.
Experiments:
mice [1] = conditions: previously described; cited from earlier work
[2] = test system: PKCI/HINT1 WT and KO mice; assay: Tail suspension test, effect of haloperidol; format: in vivo
From the text: In order to confirm the results of the forced swim test while removing any bias introduced by the animal's swimming or learning capacity, we used the tail suspension test. This test assesses depression trait using coping behavior in a stressful situation (Cryan J F et al., 2005, Neruosc. Behav. Rev. 29, 571-625). The animals are exposed to a […] stress of being hung in an uncontrollable fashion by the tail for six minutes. Immobility, considered as a depression trait when the animal gives up any escape, is reported in seconds. Data are expressed as mean+/−SEM and analyzed using a 2 way ANOVA (age×genotype) followed by Bonferroni when p<0.05.
Haloperidol 0.05 mg/kg and 0.1 mg/kg were administered via intra-peritoneal (10 ml/kg) 30 minutes before the test. Data are expressed as mean+/−SEM and analyzed using a 2 way ANOVA (treatment×genotype) followed by Bonferroni when p<0.05.

[3] = test system: extracellular DA in nucleus accumbens and caudate-putamen of mPKCI WT and KO mice; assay: In vivo microdialysis, amphetamine-evoked extracellular DA; conditions: 2.5 mg/kg ip, conventional microdialysis, FIG. 4
Protocol: PKCI^−/− mice and their WT controls were anesthetized and implanted unilaterally with a microdialysis guide cannula (CMA/11, CMA microdialysis) in the nucleus accumbens (AP: +1.5, L: −0.8, V: −3.8 from bregma) or the dorsal striatum (AP: +0.4, L−2.1, V−2.2 from bregma) using standard stereotaxic techniques, and allowed to recover for 5 days prior to the microdialysis experiment as described. […]
For no net flux experiments, five different concentrations of DA (0, 5, 10, 20 and 40 nM) in aCSF were perfused in random order through the dialysis probe. […] The DA content was determined by HPLC coupled to electrochemical detection with an external standard. All the samples were analyzed within 48 hours of collection. […] No net flux data was analyzed as described (Chefer et al 2006, supra). The net flux of DA through the probe (DAin-DAout) was calculated and plotted against the concentration of DA perfused (DAin). The following parameters were calculated from the resulting linear function. […] In the conventional microdialysis experiments investigating the effects of amphetamine, the average of the three baseline samples was calculated, and all the DA concentrations were expressed as % of baseline. […]

PKCI KO mice = assay: Conditional place preference test; format: in vivo; conditions: preliminary data
From the text: Finally, we are looking at the involvement of PKCI in the rewarding function in PKCI KO mice. In this study, we are testing the response of the KO mice to the reward action of amphetamine and cocaine by using conditional place preference test.

mPKCI WT and KO mice = assay: Locomotor activity measurement (open field, ambulation and stereotypy); format: in vivo
Protocol: The generation of PKCI^−/− mice was described previously (Su et al, 2003, supra). PKCI^−/− mice and their wild type littermates were derived by breeding heterozygous […] mice for altered PKCI allele (Hint1) and genotype of the animals was confirmed by PCR of DNA from tail biopsies. Animals were housed 4-6/cage, maintained under standard laboratory condition with food and water provided ad libitum. The male animals were tested between 10-20 weeks of age. Wild type and PKCI^−/− groups were matched for age in all experiments. All studies were conducted with an approved protocol from University of Maryland, School of Pharmacy IACUC.
Mice locomotor activity was monitored during an open field test using “Activity Monitor” chambers (27×27×20.3 cm) associated with the Activity Monitor software (Med Associates Inc St Albans Vt.). Room temperature was set at 23° C.+/−2° C. Horizontal spontaneous locomotion activity, scored as ambulatory counts and stereotypic movements (Sanberg P. R. et al 1987, Pharmacol. Biochem. Behav. 27, 569-72), was recorded during the first 30 min of acclimatization to the novel environment and during 120 min following the treatment. The animals were acclimated to a 12 h cycle light/dark phase with the light on at 7:00 am before the experiments. Tests were performed during the light phase of the cycle between 8:00 am to 3:00 pm. AMPH or other drugs was prepared freshly before each experiment by dissolving in saline (NaCl 0.9%) and administered via intra peritoneal in a total volume of 10 ml/kg at the indicated doses.

mice [4] = conditions: 10 mg/kg dose; cited from earlier work

O=C(CCCN1CCC(O)(c2ccc(Cl)cc2)CC1)c1ccc(F)cc1 [Haloperidol]
mice immobility in the tail suspension test (mice [1]): increase mice immobility
immobility compared with saline treatment ([2]; 0.05 mg/kg and 0.1 mg/kg i.p. 30 minutes before the test, WT and KO, FIG. 8): increased immobility in both WT and KO animals
increase in immobility in KO mice relative to WT level ([2]; 0.1 mg/kg, 3 months and 15 months old): reaching the level attained by WT animals

C[C@H](N)Cc1ccccc1 [amphetamine, D-amphetamine]
amphetamine-evoked DA response, WT vs KO [3]: No significant difference between WT and KO mice; also recorded: did not differ in WT and KO animals
response of KO mice to reward action (PKCI KO mice): higher response
effect on locomotion (mPKCI WT and KO mice; AMPH 2.5 mg/kg i.p., 120 min after treatment, WT and KO mice, FIG. 2): increased locomotion in both WT and KO animals
amphetamine-evoked locomotor response, PKCI KO compared with WT (mPKCI WT and KO mice; AMPH 2.5 mg/kg i.p., KO vs WT): three times more
increase in amphetamine-evoked activity in mPKCI KO mice, dose response (mPKCI WT and KO mice; D-AMPH 1.25, 2.5 and 5 mg/kg i.p., FIG. 3): consistent across a range of amphetamine doses

CN1CCc2cccc3c2[C@H]1Cc1ccc(O)c(O)c1-3 [apomorphine]
locomotor activity (total ambulation and stereotyped behavior), KO compared with WT (mPKCI WT and KO mice; apomorphine 10 mg/kg i.p., FIG. 5): significantly higher locomotor activity as compared with WT

CN1CC[C@]23c4c5ccc(O)c4O[C@H]2[C@@H](O)C=C[C@H]3[C@H]1C5 [morphine]
locomotion (mice [4]): a decrease in locomotion was often observed
effect on locomotor activity (mPKCI WT and KO mice; morphine 10 mg/kg i.p., 120 min after treatment, WT and KO mice, FIG. 2): did not promote increase in locomotor activity; also recorded: depressive locomotor effect on both wild type and knockout mice

Source: patent US20100235931A1, “Novel Neurological Function of mPKCI” (priority 2006, published 2010)
